According to ChEMBL document CHEMBL2074491, “Transport of drugs across the hepatic sinusoidal membrane: sinusoidal drug influx and efflux in the liver” (Semin Liver Dis, 2000):

Columns and labels:
[1] = tested on: Rattus norvegicus; assay: TP_TRANSPORTER: Northern blot in vivo, kidney of SD rat; format: functional, organism-based; details: Sprague Dawley
[2] = target: T1, Solute carrier organic anion transporter family member 1A1 (Rattus norvegicus, UniProt P46720); assay: TP_TRANSPORTER: transport activity; format: functional
T1 sequence (P46720 whole entry): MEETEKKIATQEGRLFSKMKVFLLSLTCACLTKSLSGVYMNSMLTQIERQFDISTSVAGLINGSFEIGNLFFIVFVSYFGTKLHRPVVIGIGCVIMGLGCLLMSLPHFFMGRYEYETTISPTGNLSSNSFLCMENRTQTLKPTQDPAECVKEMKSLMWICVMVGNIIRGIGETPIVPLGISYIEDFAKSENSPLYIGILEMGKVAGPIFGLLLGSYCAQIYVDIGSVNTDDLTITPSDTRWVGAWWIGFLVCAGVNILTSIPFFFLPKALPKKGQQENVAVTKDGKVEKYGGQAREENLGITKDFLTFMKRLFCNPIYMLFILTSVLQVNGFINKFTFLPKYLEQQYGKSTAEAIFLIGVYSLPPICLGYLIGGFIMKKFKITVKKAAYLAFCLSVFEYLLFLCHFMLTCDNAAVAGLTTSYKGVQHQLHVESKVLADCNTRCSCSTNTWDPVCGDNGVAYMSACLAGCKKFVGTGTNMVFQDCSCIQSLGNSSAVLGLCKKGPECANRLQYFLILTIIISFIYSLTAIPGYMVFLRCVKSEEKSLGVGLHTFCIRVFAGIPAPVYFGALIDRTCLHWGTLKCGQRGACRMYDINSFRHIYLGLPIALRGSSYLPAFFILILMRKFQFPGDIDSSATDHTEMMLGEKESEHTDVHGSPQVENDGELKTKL

Row | Activity [2] | Compound | Activity [1]
1 | – | C[C@]12CC[C@@H]3c4ccc(O)cc4CC[C@H]3[C@@H]1CC[C@@H]2O | is not a substrate [-]
2 | is not a substrate [-] | CCCCC[C@H](O)/C=C/[C@@H]1[C@@H](C/C=C\CCCC(=O)O)[C@@H](O)C[C@H]1O [DINOPROST] | –
